According to patent US12667546B2, “Methods for manipulating cell state transitions in cancer” (AGENCY FOR SCIENCE, TECHNOLOGY AND RESEARCH, priority 2018, dated 2026):

Columns and labels:
[1] = test system: SERPINE1prom-Luc reporter in NAMEC8 cells; assay: Dual-Glo luciferase assay of SERPINE1prom-Luc reporter (FF/Ren); type: cell-based, human; settings: for dose-dependent change of SERPINE1 promoter activity: dose response (metabolic hits 10 nM to 2 μM; epigenetic hits six concentrations)
From the text: pGreenFire1-mCMV was cut using ClaI and SpeI and gel purified. Promoter sequences of genes Zeb1, Serpine1, CDH1, CD24, CD44, CD166 were amplified from human genomic DNA with pre-designed primers containing ClaI and SpeI restriction cut sites using AccuPrime Taq DNA Polymerase (Thermo Fisher Scientific). PCR products were then digested with restriction enzymes and gel-purified. Vector was ligated with PCR insert using Quick Ligase (Fermentas) and transformed into Stb12 competent cells. Colonies were picked and inoculated into TB media with ampicillin. Plasmids were then isolated using a plasmid miniprep kit (Qiagen) and sent for sequencing (1 stBASE Laboratories). After verifying the plasmid sequence, transfection into HEK293 cells was carried out to generate lentivirus. Transfection was carried out using FuGENE 6 (Promega). Viral supernatant was harvested at 24 h and 48 h. NAMEC8 cells were then infected twice with virus using polybrene ([…]) and checked for good transduction efficiency using Dual-Glo Luciferase System (Promega).
Stock plates of compound libraries were kindly prepared by GIS CHiP facility at 1 mM concentration in DMSO. NAMEC8-SERPINE1prom-Luc cells were seeded into 384 well plates at a density of 700 cells/well in a total volume of 50 μl, using an automated dispensing system (BioTek). 0.5 μl of compounds were then added to the wells the following day using a robotic pin transfer with a Bravo workstation (Agilent Technologies). Cells were then grown for 3 days and promoter-luciferase activity was measured using the Dual-Glo Luciferase System (Promega).
Assay was carried out according to manufacturer's instructions. To measure luciferase activity in 384 well plates, media was first removed from the plate. Firefly luciferase activity was determined by adding 30 μl Dual-Glo Luciferase substrate (Promega) to the wells and incubated for 10 min before measuring luminescence using a TECAN M1000 Pro plate reader. 15 μl Dual-Glo Stop & Glo substrate was then added to the wells, incubated for 10 min and measuring luminescence on the plate reader to determine Renilla luciferase activity. Promoter luciferase activity is then calculated by taking Firefly luciferase over Renilla luciferase.

[2] = test system: NAMEC8-SERPINE1prom-Luc cells; assay: Renilla-luciferase (constitutive CMV promoter) readout for cell numbers; type: cell-based, human; settings: primary screen, Renilla as readout for cell numbers, relative to DMSO
[3] = test system: NAMEC8; assay: Cell morphology of treated NAMEC8; type: cell-based, human; settings: bexarotene, TTNPB, SGC-CBP30, UNC0642, A-485 1 μM, LLY-283, GSK591 20 nM, C-IN-1 500 nM
Experimental: Human mammary epithelial cell lines (HMLE) were generated as described and immortalized using retroviral vectors to express the catalytic subunit of the human telomerase enzyme, hTERT and the SV-40 Large T antigen. NAMEC8 was generated as described. Briefly, HMLE cells were grown to 50% confluency, followed by differential trypsinization for 1 minute with 0.05% trypsin. Detached cells were carefully collected and re-plated at approximately 200 cells per well of a 24-well plate. Upon expansion, wells were screened for populations that were morphologically mesenchymal and can be stably propagated. Clonal and non-clonal NAMEC cell lines were generated. NAMEC8 is a non-clonal line derived from at least 200 mesenchymal cells. HMLE cells and NAMECs were maintained in MEGM (Lonza).

[4] = test system: SUM159; assay: Cell morphology of treated SUM159; type: cell-based, human; settings: bexarotene, TTNPB 1 μM
Experimental: HMLE-Twist-ER cells were generated as described. For EMT-induction, 100 nM of 4-hydroxytamoxifen in ethanol was added to the culture medium every 48 h to induce Twist expression. Control cells were treated with ethanol. MCF7-Slug+Sox9 cells were generated as previously described. HMLE-Zeb1 cells were generated by infection with FUW-Zeb1 and rTTA. Doxycycline was added to the culture medium every 48 h to induce Zeb1 expression. To generate tumorigenic cells from NAMEC8, cells were infected with pWZL-Blast-Ras. MCF7, MCF7-Ras, SUM159 were maintained as previously described. All cell cultures were maintained at 37° C. with 5% CO2.

[5] = test system: Estrogen response element (ERE)-luciferase reporter in NAMEC8; assay: ERE-luciferase activity assay; type: cell-based, human
Experimental: ERE luciferase construct was kindly provided by Alan Prem Kumar, CSI, Singapore. To measure the ERE-luciferase activity, cells were seeded 24 h before transfection. ERE-luciferase (1 μg) and NSV-Renilla (0.1 μg) were packaged using Lipofectamine 2000 and transfected into NAMEC8. 24 h post-transfection, cells were reseeded into 96 well plates for drug treatment. Firefly and Renilla luciferase activities were measured with the Dual-Glo Luciferase System (Promega) 24 h post-treatment.

[6] = test system: SUM159; assay: Tumor growth of ex vivo pre-treated SUM159 injected subcutaneously; type: in vivo, NSG mice; settings: short-term (14 days) ex vivo treatment before transplantation
Experimental: (§1) All animal experiments were approved by the Agency for Science Technology and Research Singapore-Biological Resource Centre IACUC (Protocol number 140940). For pre-treated SUM159 and MCF7-Ras cells, 1×10^6 cells were suspended in 100 μl media containing 50% matrigel and injected subcutaneously into both flanks of female NSG mice. The NSG mice were checked for tumor by palpation once a week and tumors were harvested when they reached ˜15 mm in diameter. For treatment in NSG mice, 1×10^5 NAMEC8-Ras cells were suspended in 100 μl media containing 50% matrigel and injected subcutaneously into both flanks of NSG mice. The NSG mice were checked for tumor formation by palpation and when tumors were about 3 mm, mice were randomized into two groups: vehicle (5% DMSO in corn oil) and treatment (Bexarotene, 100 mg/kg/day oral dosing). Tumor size was measured every week using Vernier calipers and mice were sacrificed when tumors reached ˜15 mm or after ˜4 weeks of treatment. For patient-derived cells, 2×10^6 cells were injected subcutaneously per site in NSG mice.

[7] = test system: NAMEC8; assay: Expression of EMT and lineage markers (qRT-PCR, immunoblot, immunofluorescence) in NAMEC8; type: cell-based, human; settings: transcript and protein
Experimental: Cells were rinsed twice in ice-cold PBS. Total RNA was extracted using Trizol (Invitrogen) and column-purified with RNeasy kits (Qiagen). cDNA synthesis was performed with 500 ng of total RNA at 37° C. for 2 h using the SuperScript III First-Strand Synthesis System (Thermo Fisher Scientific), and subsequently diluted 5-fold. mRNA levels were measured with gene-specific primers listed below using the ABI Prism 7900HT Sequence Detection System 2.2 (Applied Biosystems). Results were normalized to GAPDH and analyzed using SDS 2.2 software.
Cells were harvested and scraped from culture dishes in ice-cold PBS. They were then centrifuged at 12000 rpm for 5 min at 4° C. The pellets were then snap frozen in liquid nitrogen or lysed in ice-cold RIPA lysis buffer (Thermo Scientific) and left on ice for 30 min. Subsequently, the lysates were centrifuged at 12000 rpm for 10 min at 4° C. The supernatants were then aspirated and placed in fresh tubes. Protein concentrations were determined using Coomaisse Blue. 50-80 μg total protein was mixed with NuPAGE™ LDS sample buffer and heated at 70° C. for 10 min. Samples were loaded into NuPAGE™ 4-12% Bis-Tris gels (precast polyacrylamide gel; Invitrogen™). Gel electrophoresis was done at 200V for 1.5 h and then blotted onto nitrocellulose membranes (Trans-Blot Turbo™ transfer pack; Bio-Rad). The membranes were blocked with 5% skimmed milk in Tris-buffered saline (TBS; 1st BASE) with 0.1% Tween-20 (Santa Cruz), and then incubated with primary antibodies overnight at 4° C. Thereafter, the membranes were incubated with a horseradish peroxidase (HRP)-conjugated secondary antibody at room temperature for one hour. Finally, the immunoreactive proteins were visualized by using an enhanced chemiluminescent (ECL) reagent (Thermo Scientific, 34075) with the Chemidoc™ Imager (Bio-Rad, 17001401).
Cell cultures were fixed in 4% paraformaldehyde and permeabilized with 0.25% Triton X-100, followed by blocking with 1% bovine serum albumin in PBST. Cells were incubated in specific primary antibodies, followed by the appropriate secondary antibodies conjugated with Alexa Fluor-488 or -594 (Molecular Probes). Cell nuclei were then stained with DAPI and then viewed and imaged with an Axio Observer D1 epifluorescence microscope with a built-in AxioCamMR3 camera (Zeiss), using the optimal filters and 100-200× magnifications.

[8] = test system: NAMEC8; assay: Lipid droplet staining (Bodipy); type: cell-based, human; settings: NAMEC8, with bexarotene
Experimental: Intracellular lipid droplets were visualized with fluorescent Bodipy dye. Cells in culture were fixed in 4% paraformaldehyde for 15 min at room temperature, rinsed twice with PBS and permeabilized with 0.2% TritonX-100 in PBS for 10 min and incubated with Bodipy diluted in PBS (final concentration 1 μg/ml) for overnight at 4° C. Cells were washed with PBS and stained with DAPI. Fluorescence images were obtained with an Axio Observer D1 epifluorescence microscope with a built-in AxioCamMR3 camera (Zeiss), using the optimal filters and 100-200× magnifications.

[9] = test system: SUM159 PACR cells; assay: Cell viability IC50 in SUM159 PACR cells; settings: SUM159 PACR vs SUM159 PT
[10] = test system: MCF7-Ras; assay: Tumor growth of ex vivo pre-treated MCF7-Ras injected subcutaneously; type: in vivo, NSG mice; settings: ex vivo treatment before injection
Experimental: as §1

[11] = test system: NAMEC8; assay: Mammosphere assay, NAMEC8; type: cell-based, human; settings: NAMEC8, pre-treated cells
Experimental: For mammosphere culture, cells were seeded onto 96-well ultralow-adherence plates at 700 cells/well in Mammocult medium (Stem Cell Technologies) supplemented with 4 μg/ml heparin, 0.5 μg/ml hydrocortisone and 1% methylcellulose. Spheres (>100 μm) were counted at 7-10 days later.

C/C(=C\c1ccc(C(=O)O)cc1)c1ccc2c(c1)C(C)(C)CCC2(C)C [TTNPB]
Avr FF/Renilla from DMSO ([1]; primary screen, NAMEC8-SERPINE1prom-Luc cells grown 3 days with compound, relative to DMSO): 0.19
% Avr Renilla from DMSO [2]: 58.46%
cell morphology [3]: dramatic change in morphology from scattered, spindle and fibroblastic-like cells to an epithelial-like morphology
cell morphology [4]: dramatic change in morphology from scattered, spindle and fibroblastic-like cells to an epithelial-like morphology
ERE-luciferase reporter activity [5]: increased
tumorigenic potential [6]: severely crippled their tumorigenic potential for up till seven weeks post-transplantation

COc1cc(C)c(C(=O)Oc2cc(C)c(C(=O)Oc3cc(C)c(C(=O)NC(C)C(=O)O)c(O)c3)c(O)c2)c(OC)c1 (centres unmarked) [AmidepsineA]
expression of EMT and basal/luminal markers [7]: the gain in epithelial-luminal gene markers such as E-cadherin, KRT8, and MUC1 were suppressed
accumulation of lipid droplets during retinoid treatment [8]: clear reductions in the accumulation of lipid droplets during retinoid treatment

COc1cc2c(NC3CCN(C(C)C)CC3)nc(N3CCC(F)(F)CC3)nc2cc1OCCCN1CCCC1 [UNC0642]
expression of EMT and basal/luminal markers [7]: no apparent change was observed

CC(=O)O[C@H]1C(=O)[C@@]2(C)[C@H]([C@H](OC(=O)c3ccccc3)[C@]3(O)C[C@H](OC(=O)[C@H](O)[C@@H](NC(=O)c4ccccc4)c4ccccc4)C(C)=C1C3(C)C)[C@]1(OC(C)=O)CO[C@@H]1C[C@@H]2O [paclitaxel]
increase in paclitaxel-resistance, PACR vs parental (PT) cells [9]: > 20 fold

CC1=C(/C=C/C(C)=C/C=C/C(C)=C/C(=O)O)C(C)(C)CCC1 [Tretinoin (Aberela), Tretinoin]
activity at 10 µM ([1]; Homo sapiens, 72 h, primary screen, NAMEC8-SERPINE1prom-Luc cells grown 3 days with compound, relative to DMSO, read-out: Avr FF/Renilla from DMSO): 50%
viability at 10 µM ([2]; Homo sapiens, 72 h, read-out: % Avr Renilla from DMSO): 87%
tumor cell growth [10]: no impact on the tumor cell growth was observed

O=C(NC[C@H](O)CN1CCc2ccccc2C1)c1ccnc(NC2CCC2)c1 [GSK591]
expression of EMT and basal/luminal markers [7]: no apparent change was observed
mammosphere formation [11]: significantly reduce the size and number of spheres formed

Nc1ncnc2c1ccn2[C@@H]1O[C@H]([C@H](O)c2ccccc2)[C@@H](O)[C@H]1O [LLY-283]
expression of EMT and basal/luminal markers [7]: no apparent change was observed
mammosphere formation [11]: significantly reduce the size and number of spheres formed

CCCCCCCCCS(=O)(=O)Nc1ccccc1C(=O)O [FSG67]
expression of EMT and basal/luminal markers [7]: the gain in epithelial-luminal gene markers such as E-cadherin, KRT8, and MUC1 were suppressed
accumulation of lipid droplets during retinoid treatment [8]: clear reductions in the accumulation of lipid droplets during retinoid treatment

CN(C)c1ccc(C2Nc3ccc4ccccc4c3C3=C2C(=O)CC(C)(C)C3)cc1Br (centres unmarked) [Glutaminase C-IN-1]
dose-dependent change of SERPINE1 promoter activity [1]: dose dependent decrease in SERPINE1 promoter activity
dose-dependent change of SERPINE1 promoter activity ([1]; listed as C-IN-1): dose-response effect of decreasing SERPINE1 promoter activity
cell morphology [3]: morphological change from a scattered distribution typically observed in mesenchymal cells to tight clusters of epithelial islands
expression of EMT and basal/luminal markers [7]: mesenchymal proteins Zeb1, fibronectin, Slug and Snail were decreased, epithelial E-Cadherin was increased
